What all share (assay type): functional
What all share (details): read-out: IZ

Assay [1] concerns Helicobacter pylori. Put plainly: Antibacterial activity against metronidazole-sensitive Helicobacter pylori at 16 ug/disk after 3 to 5 days by filter paper disk diffusion method. For orientation: A growth-free zone around the sample is the usual read-out of agar diffusion tests.
The subject of assay [2] is Helicobacter pylori. In words: Antibacterial activity against metronidazole-resistant Helicobacter pylori at 8 ug/disk after 3 to 5 days by filter paper disk diffusion method.
Assay [3] deals with Helicobacter pylori. In words: Antibacterial activity against metronidazole-sensitive Helicobacter pylori at 32 ug/disk after 3 to 5 days by filter paper disk diffusion method.
Assay [4] deals with Helicobacter pylori. Put plainly: Antibacterial activity against metronidazole-resistant Helicobacter pylori at 16 ug/disk after 3 to 5 days by filter paper disk diffusion method.
Assay [5] relates to Helicobacter pylori. In words: Antibacterial activity against metronidazole-sensitive Helicobacter pylori at 8 ug/disk after 3 to 5 days by filter paper disk diffusion method.
The subject of assay [6] is Helicobacter pylori. Put plainly: Antibacterial activity against metronidazole-resistant Helicobacter pylori at 32 ug/disk after 3 to 5 days by filter paper disk diffusion method.
For assay [7], the system named is Helicobacter pylori. In words: Antibacterial activity against Helicobacter pylori clinical isolates at 1 ug/disk after 3 to 5 days by filter paper disk diffusion method.
For assay [8], the system named is Helicobacter pylori. Put plainly: Antibacterial activity against Helicobacter pylori clinical isolates at 2 ug/disk after 3 to 5 days by filter paper disk diffusion method.
Assay [9] has as its system Helicobacter pylori. Put plainly: Antibacterial activity against Helicobacter pylori clinical isolates at 8 ug/disk after 3 to 5 days by filter paper disk diffusion method.
Assay [10] concerns Helicobacter pylori. Put plainly: Antibacterial activity against Helicobacter pylori clinical isolates at 0.5 ug/disk after 3 to 5 days by filter paper disk diffusion method.
In assay [11] the test system is Helicobacter pylori. Put plainly: Antibacterial activity against Helicobacter pylori clinical isolates at 16 ug/disk after 3 to 5 days by filter paper disk diffusion method.
For assay [12], the system named is Helicobacter pylori. In words: Antibacterial activity against Helicobacter pylori clinical isolates at 4 ug/disk after 3 to 5 days by filter paper disk diffusion method.
In assay [13] the test system is Helicobacter pylori. Put plainly: Antibacterial activity against Helicobacter pylori clinical isolates at 32 ug/disk after 3 to 5 days by filter paper disk diffusion method.

On to `O=[N+]([O-])c1ccc(-c2nnc(N3CCS(=O)(=O)CC3)s2)s1`, for which the zone of inhibition at 16 µg/disc in [1] and in [4] was 6 mm each time. Further, the zone of inhibition at 8 µg/disc in [2] and in assay [5] was 6 mm throughout. The values for the zone of inhibition at 32 µg/disc in assay [3] and in assay [6] were 16 mm and 6 mm, respectively.

For `CC1(C)S[C@@H]2[C@H](NC(=O)[C@H](N)c3ccc(O)cc3)C(=O)N2[C@H]1C(=O)O` [AMOXICILLIN], the zone of inhibition at 1 µg/disc in assay [7] is 24.5 mm.

On to `Cn1c([N+](=O)[O-])cnc1-c1nnc(N2CCCCC2)s1`, for which the zone of inhibition at 16 µg/disc in assay [1] and in [4] was 6 mm each time. In addition, the zone of inhibition at 8 µg/disc in assay [2] and in [5] was 6 mm throughout. Further, the zone of inhibition at 32 µg/disc in assay [3] and in assay [6] was 6 mm in each case.

Consider `O=[N+]([O-])c1ccc(-c2nnc(N3CCCCC3)s2)s1`, for which the zone of inhibition at 16 µg/disc in [1] and in assay [4] was 6 mm each time. The zone of inhibition at 8 µg/disc in assay [2] and in assay [5] was 6 mm throughout. Also, the zone of inhibition at 32 µg/disc in assay [3] and in assay [6] was 6 mm in each case.

Regarding `Cn1c([N+](=O)[O-])cnc1-c1nnc(N2CCSCC2)s1`, the zone of inhibition at 2 µg/disc in assay [8] was determined as 20 mm. The zone of inhibition at 8 µg/disc was 27.4 mm in [9], 24 mm in assay [2] and 27 mm in [5]. In addition, the zone of inhibition at 0.5 µg/disc in [10] stood at 9.9 mm. Moreover, the figures for the zone of inhibition at 16 µg/disc in assay [11], in [1] and in assay [4] were 30.4 mm, 31 mm and 27 mm, respectively. Moreover, the zone of inhibition at 4 µg/disc in assay [12] came out at 23.7 mm. Moreover, the zone of inhibition at 32 µg/disc in assay [3] is 34 mm; in assay [13], 32.4 mm; in assay [6] it was 30 mm. Moreover, the zone of inhibition at 1 µg/disc in assay [7] stood at 15.6 mm.

With `Cn1c([N+](=O)[O-])cnc1-c1nnc(N2CC[S+]([O-])CC2)s1`, the zone of inhibition at 16 µg/disc in assay [1] was determined as 19 mm; in assay [4], 15 mm. Moreover, the zone of inhibition at 8 µg/disc in [2] and in [5] was 6 mm throughout. Further, the zone of inhibition at 32 µg/disc was 25 mm in [3] and 21 mm in assay [6].

For `O=[N+]([O-])c1ccc(-c2nnc(N3CCCCC3)s2)o1`, the zone of inhibition at 2 µg/disc in [8] was 24.9 mm. The zone of inhibition at 8 µg/disc in assay [9] came to 30.5 mm; in [2], 27 mm; in assay [5], 28 mm. Moreover, the zone of inhibition at 0.5 µg/disc in assay [10] turned out to be 13.7 mm. Besides, the zone of inhibition at 16 µg/disc was 33.5 mm in assay [11], 32 mm in [1] and 32 mm in assay [4]. For the same molecule, the zone of inhibition at 4 µg/disc in assay [12] was 27.4 mm. Further, the zone of inhibition at 32 µg/disc was determined as 35 mm in [3], 36.5 mm in assay [13] and 34 mm in assay [6]. Moreover, the zone of inhibition at 1 µg/disc in assay [7] worked out at 19 mm.

For `O=[N+]([O-])c1ccc(-c2nnc(N3CCSCC3)s2)o1`, the zone of inhibition at 2 µg/disc in assay [8] stood at 23.4 mm. The results for the zone of inhibition at 8 µg/disc in [9], in [2] and in [5] were 30.1 mm, 26 mm and 32 mm, respectively. Further, the zone of inhibition at 0.5 µg/disc in assay [10] turned out to be 10.8 mm. Besides, the zone of inhibition at 16 µg/disc in assay [11] stood at 32.9 mm; in assay [1], 35 mm; in [4], 37 mm. In addition, the zone of inhibition at 4 µg/disc in assay [12] was 27.7 mm. The zone of inhibition at 32 µg/disc in assay [3] was found to be 41 mm; in [13], 36.9 mm; in [6] it was 42 mm. In assay [7], the zone of inhibition at 1 µg/disc is 18.3 mm.

Turning to `O=[N+]([O-])c1ccc(-c2nnc(N3CCSCC3)s2)s1`, the values for the zone of inhibition at 16 µg/disc in assay [1] and in assay [4] were 18 mm and 19 mm, respectively. Besides, the zone of inhibition at 8 µg/disc in assay [2] and in assay [5] was 16 mm each time. The values for the zone of inhibition at 32 µg/disc in [3] and in assay [6] were 22 mm and 21 mm, respectively.

As to `O=[N+]([O-])c1ccc(-c2nnc(N3CC[S+]([O-])CC3)s2)o1`, in assay [8], the zone of inhibition at 2 µg/disc was 19.9 mm. Besides, the zone of inhibition at 8 µg/disc came to 31 mm in [9], 35 mm in assay [2] and 35 mm in assay [5]. The zone of inhibition at 0.5 µg/disc in [10] came to 7.3 mm. In addition, the zone of inhibition at 16 µg/disc in [11] turned out to be 37.1 mm; in [1], 41 mm; in assay [4] it was 40 mm. Moreover, in [12], the zone of inhibition at 4 µg/disc came out at 25.4 mm. In addition, the zone of inhibition at 32 µg/disc in assay [3] was determined as 46 mm; in assay [13], 41.9 mm; in assay [6], 43 mm. Besides, the zone of inhibition at 1 µg/disc in assay [7] is 13.4 mm.

Take `Cn1c([N+](=O)[O-])cnc1-c1nnc(N2CCOCC2)s1`: in assay [8], the zone of inhibition at 2 µg/disc came out at 21.3 mm. Further, the zone of inhibition at 8 µg/disc turned out to be 27.6 mm in assay [9], 26 mm in [2] and 25 mm in [5]. Moreover, the zone of inhibition at 0.5 µg/disc in assay [10] came to 13.7 mm. For the same molecule, the zone of inhibition at 16 µg/disc in [11] was found to be 30.6 mm; in assay [1] it was 31 mm; in assay [4], 31 mm. Moreover, the zone of inhibition at 4 µg/disc in assay [12] is 22.5 mm. The zone of inhibition at 32 µg/disc turned out to be 32 mm in assay [3], 33.5 mm in assay [13] and 33 mm in assay [6]. Moreover, in assay [7], the zone of inhibition at 1 µg/disc came out at 19.4 mm.

As to `O=[N+]([O-])c1ccc(-c2nnc(N3CCOCC3)s2)o1`, the zone of inhibition at 2 µg/disc in [8] worked out at 23.7 mm. The zone of inhibition at 8 µg/disc in assay [9] stood at 32.1 mm; in assay [2] it was 30 mm; in assay [5], 33 mm. Also, the zone of inhibition at 0.5 µg/disc in assay [10] worked out at 10.8 mm. The zone of inhibition at 16 µg/disc in assay [11] is 36.6 mm; in [1], 36 mm; in assay [4], 33 mm. The zone of inhibition at 4 µg/disc in assay [12] was determined as 28.4 mm. Also, the zone of inhibition at 32 µg/disc was 42 mm in assay [3], 40 mm in assay [13] and 48 mm in [6]. The zone of inhibition at 1 µg/disc in assay [7] came to 17.5 mm.

As to `O=[N+]([O-])c1ccc(-c2nnc(N3CCOCC3)s2)s1`, the zone of inhibition at 16 µg/disc in [1] and in [4] was 6 mm in each case. Also, the zone of inhibition at 8 µg/disc in assay [2] and in [5] was 6 mm throughout. Moreover, the zone of inhibition at 32 µg/disc in [3] turned out to be 15 mm; in [6], 6 mm.

As for `O=[N+]([O-])c1ccc(-c2nnc(N3CC[S+]([O-])CC3)s2)s1`, the zone of inhibition at 2 µg/disc in assay [8] was determined as 23.6 mm. For the same molecule, the zone of inhibition at 8 µg/disc was 34.4 mm in assay [9], 32 mm in assay [2] and 34 mm in assay [5]. Moreover, the zone of inhibition at 0.5 µg/disc in assay [10] was determined as 13.7 mm. Besides, the zone of inhibition at 16 µg/disc is 39.9 mm in assay [11], 39 mm in assay [1] and 35 mm in assay [4]. Besides, in assay [12], the zone of inhibition at 4 µg/disc is 28.1 mm. The values for the zone of inhibition at 32 µg/disc in assay [3], in [13] and in assay [6] were 46 mm, 45 mm and 41 mm, respectively. Further, the zone of inhibition at 1 µg/disc in assay [7] came out at 18.5 mm.

`Cc1ncc([N+](=O)[O-])n1CCO` [METRONIDAZOLE]: the zone of inhibition at 8 µg/disc in assay [9] was found to be 16.3 mm; in assay [2] it was 11 mm; in assay [5], 18 mm.

For `O=[N+]([O-])c1ccc(-c2nnc(N3CCS(=O)(=O)CC3)s2)o1`, the zone of inhibition at 2 µg/disc in assay [8] came out at 25.5 mm. The values for the zone of inhibition at 8 µg/disc in assay [9], in assay [2] and in assay [5] were 36.1 mm, 41 mm and 43 mm, respectively. For the same molecule, the zone of inhibition at 0.5 µg/disc in assay [10] stood at 16.6 mm. The zone of inhibition at 16 µg/disc in assay [11] amounted to 40.7 mm; in assay [1] it was 50 mm; in assay [4], 43 mm. Moreover, the zone of inhibition at 4 µg/disc in assay [12] was determined as 30.7 mm. In addition, the zone of inhibition at 32 µg/disc in [3] is over 50 mm; in [13] it was 44.3 mm; in [6], 46 mm. Besides, the zone of inhibition at 1 µg/disc in assay [7] amounted to 21 mm.

Take `Cn1c([N+](=O)[O-])cnc1-c1nnc(N2CCS(=O)(=O)CC2)s1`: the zone of inhibition at 2 µg/disc in assay [8] amounted to 19.3 mm. Besides, the zone of inhibition at 8 µg/disc amounted to 30.2 mm in assay [9], 27 mm in [2] and 32 mm in assay [5]. Further, in assay [10], the zone of inhibition at 0.5 µg/disc stood at 10.6 mm. Moreover, the zone of inhibition at 16 µg/disc is 33.9 mm in [11], 40 mm in assay [1] and 36 mm in assay [4]. Besides, in assay [12], the zone of inhibition at 4 µg/disc was determined as 25.9 mm. In addition, the zone of inhibition at 32 µg/disc came to 45 mm in [3], 37.3 mm in [13] and 40 mm in assay [6]. The zone of inhibition at 1 µg/disc in [7] came to 14.9 mm.
